Data set [1] has as its target PLpro from SCoV-2 (Severe acute respiratory syndrome coronavirus 2, UniProt P0DTD1). Nature of the data set: Fluorescent PLpro inhibition assay (RLRGG-AMC substrate), dose response. It counts as biochemical, SARS-CoV-2.
For data set [2], the target named is T1, PLpro (Severe acute respiratory syndrome coronavirus 2, UniProt P0DTD1). Nature of the data set: Time dependent PLpro inhibition assay (pre-incubation). It counts as biochemical, SARS-CoV-2. The text has this: Compound 5 contains a mercaptopyrimidine fragment, which can potentially undergo addition–elimination reactions with nucleophiles. For example, Murugesan et al. recently identified a mercaptopyrimidine based inhibitor of tuberculosis cell growth, which reacted with glutathione under physiological conditions.[27,35] PLpro is a cysteine protease with a nucleophilic cysteine in its active site, which could potentially react with compound 5via an additional elimination reaction. We performed a time dependent PLpro inhibition assay with compound 5 to determine if pre-incubation time lowered its IC50. Pre-incubation time lowers the IC50 of covalent inhibitors because it gives more time for the protein to react with the inhibitor. In contrast, pre-incubation time frequently has no effect on the IC50 of non-covalent inhibitors because their koffs are generally on the timescale of second to minutes.
The PLpro protein (50 nM) was preincubated with different concentration of inhibitor (0, 1, 2.5, 5, 10 and 20 μM) for different time points (0, 5, 10, 20, 35, 95, 125, 185 minutes). The substrate (50 μM) was added and measured the fluorescence. The data was analyzed using Enzyme – inhibition, GraphPad Prism.

A further data set relates to SARS-CoV-2-NLuc. It counts as cell-based. The following applies: data not shown.
The test system of another data set is SARS-CoV-2 USA-WA1/2020. Nature of the data set: SCoV-2 USA-WA1/2020 antiviral assay with plaque forming readout in Vero E6 cells. Type of data set: cell-based.
Data set [3] in a line: Cytotoxicity assay (resazurin). Type of data set: cell-based. The following applies: African green monkey, Vero CCL-81 cells, Vero CCL-81, resazurin, read-out: cell viability. A general note: The colour change of resazurin is a common sign of viable cells or microbes.
A further data set relates to Vero CCL-81 cells. Nature of the data set: Cytotoxicity assay (resazurin). Conditions: 50 μM, Vero CCL-81, resazurin. Type of data set: cell-based.
The target in another data set is SCoV2 PLpro (Severe acute respiratory syndrome coronavirus 2, UniProt P0DTD1). The experiment in a line: Gel-based activity based protein profiling (IA-rhodamine / NHS-rhodamine). It counts as biochemical, SARS-CoV-2. The following applies: pulse chase. The method, then: We performed activity-based profiling experiments to determine if compound 5 covalently reacted with the cysteines or lysines of PLpro.[36] Iodoacetamide-rhodamine was used as the probe for cysteine reactivity analysis and NHS-rhodamine was the probe for investigating lysine reactivity on PLpro. A traditional pulse chase experiment was performed with PLpro and the rhodamine dyes, where PLpro was first incubated with compound 5 and then incubated with iodoacetamide-rhodamine or NHS-rhodamine. After the dye incubation, PLpro was run on a protein gel and imaged via fluorescence. […] The other thiols in PLpro are either disulfides, which are unreactive to nucleophiles, or zinc chelated and have diminished nucleophilicity.
For gel-based ABPP experiments with PLpro, pure SCoV2 PLpro protein (0.1 μg per sample for IA-rhodamine and 0.05 μg for NHS-rhodamine) was pretreated with either DMSO vehicle or desired dosage of compound 5 at 37 °C for 1 hour in 25 μL PBS. […] Probe-labeled proteins were analyzed by in-gel rhodamine fluorescence using a ChemiDoc MP (Bio-Rad). Protein loading was assessed by Silver Staining.

The target of data set [4] is T1, PLpro. The experiment in a line: Jump dilution assay (reversibility of PLpro inhibition). It counts as biochemical, SARS-CoV-2. The method, then: To investigate if compound 5 constitutes a novel class of RCI, we performed a jump dilution assay with PLpro, compound 5 and beta-mercaptoethanol (BMe). PLpro and compound 5 were mixed and allowed to react, diluted 25-fold in the presence of 5 mM BMe[38,39] and the inhibition of PLpro was measured.
BMe is not a biological nucleophile, and we re-did the jump dilution assay in the presence of either 5 mM reduced glutathione (GSH) or 200 μM cysteine (their physiological concentrations)[40] to determine if the PLpro-compound 5 adduct would rapidly decompose in cells. […] In contrast, smaller thiols such as BMe and cysteine can apparently access the PLpro active site and can displace compound 5. […] In addition, the mercaptopryimidine ring can function as a size selective filter for thiols and this unique feature should allow it to find numerous applications in drug discovery.
PLpro was mixed with compound 5 at the 10-fold higher concentration of IC50 (10 × IC50) and allowed to form protein-inhibitor complex at saturating conditions at room temperature. The complex was then rapidly diluted in a buffer supplemented with 5 mM reduced glutathione, 5 mM beta-mercaptoethanol (BMe), 200 μM cysteine to bring the compound's concentration of 1/10 × IC50. After 5 minutes of dilution, the substrate was added and incubated for 30 minutes. The fluorescent intensities were read at the excitation wavelength of 360 nm and emission wavelength of 460 nm.

The target in data set [5] is T1, PLpro. Nature of the data set: Surface plasmon resonance with immobilized His-tagged PLpro. Type of data set: binding, SARS-CoV-2. (In general: SPR reads the build-up and loss of mass on a sensor chip optically.)
The next data set has as its system SCoV PLpro. On the set-up: method as in PMID 18852458. The following applies: cited from earlier work.
In data set [6] the test system is PLpro from SCoV-2. On the set-up: method as in PMID 33531496, PMID 32895623, PMID 33473130, PMID 34341772, PMID 32845033. Conditions: cited from earlier work.
The subject of data set [7] is SCoV-2. Details: method as in PMID 33531496, PMID 32895623, PMID 33473130, PMID 34341772, PMID 32845033. The following applies: cited from earlier work.
Data set [8] deals with SCoV-2. On the set-up: method as in PMID 33531496, PMID 32895623, PMID 33473130, PMID 34341772, PMID 32845033. Conditions: oral delivery; cited from earlier work.
The mark [9] stands for this setting: IC50 (PLpro inhibition, HTS hits), HTS hit dose response, 10 point 1:2 dilution from 40 μM, 50 nM PLpro, 50 μM RLRGG-AMC.
[10] abbreviates: IC50 (PLpro inhibition, compound 5 and derivatives), hit exploration / SAR, compounds purchased from ChemDiv.

Several values for one entry are separate records, joined by “and”; a condition that tells them apart may be missing. Identical values can stand only once. Entries after “also recorded” stand apart in the source; their conditions may differ. Like-named read-outs stand apart in the source and are kept apart here.

Broadly, the IC50 is the midpoint of a concentration-inhibition curve. `CN(C)C(S)=Nc1nc2ccccc2s1` [Compound 8] yielded an IC50 on PLpro from SCoV-2 [1] (setting [9]) of 4.76 µM.
`COC(=O)c1ccc([C@@H]2Nc3c(Cl)cccc3[C@@H]3C=CC[C@@H]32)cc1` [Compound 9] had an IC50 on PLpro from SCoV-2 [1] (setting [9]) of 7.94 µM.
In turn, `Cc1ccc(-n2c(N)c(C(=O)N3CCCCC3)sc2=S)cc1` [Compound 10] came in with an IC50 at PLpro from SCoV-2 [1] (setting [9]) of 8.33 µM.
The viability is a read-out of living cells in per cent, often relative to untreated cells. As usually defined, the Kd is the equilibrium constant for the complex coming apart. With `CCCSc1nc2sc3c(c2c(=O)n1CC)CCc1ccccc1-3` [Compound 5], the half-inhibitory concentration (IC50) against PLpro from SCoV-2 [1] (setting [9]) was 1.59 µM; on PLpro from SCoV-2 [1] (setting [10]), 5.1 µM and 5.19 µM and 5 µM; at PLpro [2] (3 hour pre-incubation with PLpro, read-out: IC50 of PLpro inhibition after 3 hour pre-incubation), 0.9 µM; on PLpro [2] (no pre-incubation, read-out: IC50 of PLpro inhibition, no pre-incubation), 9 µM. Moreover, the “decrease in IC50 after pre-incubation” value at PLpro [2] (3 hours pre-incubation vs none) amounted to 10 fold. Besides, the “reduction of NLuc levels of infected cells” value with SARS-CoV-2-NLuc (10 μM) was 3 fold; in the data set on SARS-CoV-2-NLuc (20 μM), 7 fold. In addition, the “reduction in infectious virus levels (plaque forming assay)” value is 3 fold with SARS-CoV-2 USA-WA1/2020 (10 μM) and 22 fold in the data set on SARS-CoV-2 USA-WA1/2020 (20 μM). Also, the viability at 72 h, 1 µM in data set [3] (1 μM) is above 85%. In [3] (10 μM), the viability at 72 h, 10 µM was above 85%. Besides, in data set [3] (25 μM), the viability at 72 h, 25 µM was above 85%. In addition, the toxicity result in the data set with Vero CCL-81 cells is listed as “significant toxicity”. Further, the “cysteine reactivity: blocking of iodoacetamide-rhodamine labelling of PLpro” value at SCoV2 PLpro (IA-rhodamine probe) is on record as “prevents PLpro from reacting with iodo-acetamide; also recorded: able to prevent PLpro from reacting with iodo-acetamide”. For the same molecule, the “lysine reactivity: blocking of NHS-rhodamine labelling of PLpro” value at SCoV2 PLpro (NHS-rhodamine probe) is listed as “unable to prevent PLpro from reacting with NHS-rhodamine”. In addition, the “recovery of PLpro activity after dilution” value is listed as “can regenerate active PLpro; also recorded: recovered the activity of PLpro” at PLpro [4] (200 μM cysteine); “cannot; also recorded: did not” at PLpro [4] (5 mM reduced glutathione (GSH)); 90% on PLpro [4] (diluted 25-fold with 5 mM BMe, 5 minutes); “still inhibits PLpro after dilution with PBS” on PLpro [4] (dilution in PBS); “no effect on the activity of PLpro” on PLpro [4] (dilution in PBS, listed as compound 5). Also, at PLpro [5] (SPR, His-tagged PLpro on Ni-NTA chip, read-out: binding constant KD), the Kd came out at 21 µM.
On to `C=CCSc1nc2sc3c(c2c(=O)n1CC)CCc1ccccc1-3` [Compound 5E], for which the IC50 against PLpro from SCoV-2 [1] (setting [10]) was 0.9 µM and 0.853 µM and 0.85 µM. Moreover, the “IC50 relative to compound 5 (times lower / fold higher potency)” value on PLpro from SCoV-2 [1] (compared with compound 5) is “approximately 5 fold”. In addition, in the data set with SARS-CoV-2 USA-WA1/2020, the “antiviral activity in Vero E6 cells by plaque assay” value was “did not have any antiviral activity; also recorded: do not exhibit antiviral activity”. Besides, the dissociation constant (Kd) on PLpro [5] came out at 8.3 µM.
For `CNC(=O)c1sc(=S)n(-c2cc(Cl)ccc2OC)c1N` [Compound 2], the IC50 at PLpro from SCoV-2 [1] (setting [9]) came to 0.985 µM.
In the case of `Cc1ccc(N)cc1C(=O)N[C@H](C)c1cccc2ccccc12` [GRL0617], the “IC50 (SCoV PLpro)” value with SCoV PLpro is recorded as “low micromolar range”. For the same molecule, in the data set on PLpro from SCoV-2 [6], the “IC50 (PLpro from SCoV-2)” value is recorded as “micromolar range”. For the same molecule, the “IC50 (viral replication in cells)” value in the data set with SCoV-2 [7] is given as “micromolar range”. The “antiviral activity against SCoV-2 in mice” value in the data set on SCoV-2 [8] was “moderate antiviral activity”.
In the case of `CCSc1nc2sc3c(c2c(=O)n1CC)CCc1ccccc1-3` [Compound 5B], at PLpro from SCoV-2 [1] (hit exploration / SAR, compounds purchased from ChemDiv, read-out: IC50 (PLpro inhibition, compound 5 and derivatives)), the IC50 was 5 µM and 4.99 µM. In the data set with SARS-CoV-2 USA-WA1/2020, the “antiviral activity in Vero E6 cells by plaque assay” value was “did not have any antiviral activity; also recorded: do not exhibit antiviral activity”.
Regarding `CCC(CC)COC(=O)[C@H](C)N[P@](=O)(OC[C@H]1O[C@@](C#N)(c2ccc3c(N)ncnn23)[C@H](O)[C@@H]1O)Oc1ccccc1` [Remdesivir, reference compound], the “antiviral activity, positive control in plaque forming assay” value in the data set with SARS-CoV-2 USA-WA1/2020 (100 μM) was “potently inhibited the virus”.
On to `CCn1c(N)c(C(=O)Nc2ccccc2OC)sc1=S` [Compound 6], for which, at PLpro from SCoV-2 [1] (setting [9]), the IC50 is 2.73 µM.
At PLpro from SCoV-2 [1] (setting [9]), `Cc1nn(-c2ccccc2)c(OC(=O)C(C)C)c1Sc1ccccc1` [Compound 1] had an IC50 of 0.815 µM.
For `CCOC(=O)c1sc(=S)n(-c2cc(OC)ccc2OC)c1N` [Compound 7], the midpoint of inhibition on PLpro from SCoV-2 [1] (setting [9]), the IC50, lay at 3.87 µM.
Still for that read-out and setting: as for `Cc1nnc(Sc2nc(Sc3nnc(C)s3)nc(Sc3nnc(C)s3)n2)s1` [Compound 4], the figure is 1.42 µM.
